Test results taken from patent US10787483B2, “Antimicrobial peptidomimetics” (Agency for Science, Technology and Research, priority 2014, dated 2020).
Values after ≈ are worked out from the molar mass of the structure shown. Where two headings read alike, the source gives them in different places.

How the values were obtained:
MRSA ATCC-700699 = assay: MIC, panel of MRSA strains: ATCC-700699; format: cell-based; conditions: Staphylococcus aureus; MRSA strain ATCC-700699
Experimental: (§1) Using a sterile loop, 3 to 5 isolated colonies of bacteria of the same morphological appearance are selected from the overnight agar plate. The colonies are transferred into a conical flask containing 5 mL of liquid medium (i.e. Mueller-Hinton broth). The broth is incubated at 37° C. in a shaker at 220 rpm until it reaches a turbidity that is equal to the turbidity of a McFarland Standard 0.5 (correspond to 1×10^8 cfu/mL). This culture growth step will require 1-2 hours depending on the bacteria tested.
(§2) During this pause period, an antibacterial dilution is prepared. Therefore an antibacterial stock solution is diluted in Mueller-Hinton broth. The concentration of DMSO is kept at 5%. 100 μL of the antibacterial solution are dispensed into the first well of a row. 50 μL of medium containing 0.5% of DMSO are dispensed to the rest of the wells. […]
(§3) The bacterial suspension prepared above is mixed thoroughly, and diluted by a factor of 1:100 in the sterile medium. […] The colonies on the agar plate are counted the next day to verify that the right number of cfu was inoculated. The plate is agitated in the SpectraMax spectrophotometer for 90 s and the OD600 for all the wells in the plate is recorded. […]

MRSA ATCC-1720 = assay: MIC, panel of MRSA strains: ATCC-1720; format: cell-based; conditions: Staphylococcus aureus; MRSA strain ATCC-1720
Experimental: as §1, §2, §3

MRSA ATCC-BAA-44 = assay: MIC, panel of MRSA strains: ATCC-BAA-44; format: cell-based; conditions: Staphylococcus aureus; MRSA strain ATCC-BAA-44
Experimental: as §1, §2, §3

MRSA ATCC-2094 = assay: MIC, panel of MRSA strains: ATCC-2094; format: cell-based; conditions: Staphylococcus aureus; MRSA strain ATCC-2094
Experimental: as §1, §2, §3

MRSA ATCC-BAA-1680 = assay: MIC, panel of MRSA strains: ATCC-BAA-1680; format: cell-based; conditions: Staphylococcus aureus; MRSA strain ATCC-BAA-1680
Experimental: as §1, §2, §3

MRSA ATCC-BAA-1681 = assay: MIC, panel of MRSA strains: ATCC-BAA-1681; format: cell-based; conditions: Staphylococcus aureus; MRSA strain ATCC-BAA-1681
Experimental: as §1, §2, §3

MRSA (ATCC 33591) = assay: MIC determination by broth microdilution vs. MRSA (ATCC 33591); format: cell-based, Staphylococcus aureus; conditions: Staphylococcus aureus
Experimental: as §1
During this pause period, an antibacterial dilution is prepared. Therefore an antibacterial stock solution is diluted in Mueller-Hinton broth. The concentration of DMSO is kept at 5%. 100 μL of the antibacterial solution are dispensed into the first well of a row. 50 μL of medium containing 0.5% of DMSO are dispensed to the rest of the wells. A 2-fold serial dilution is achieved by transferring 50 μL from the first well (containing the highest concentration of antibacterial) into the second well, and continuing like this until the 10th well in the row. The final 50 μL are discarded so that every well has 50 μL of each antibacterial dilution.
The 11th well was used as the growth control well (medium with bacterial inoculums, no antibacterial) while the 12th well was the sterility control well (medium only).
The bacterial suspension prepared above is mixed thoroughly, and diluted by a factor of 1:100 in the sterile medium. Each well and the growth control well is inoculated with 50 μL of the bacterial suspension. […] To the sterility control well 50 μL of sterile medium are added in place of the bacterial suspension. 10 μL aliquot from the growth control well is removed immediately after inoculating the plate and pipetted it into a sterile Eppendorf tube holding 990 μL of sterile broth. It is mixed well by vortexing. This suspension is further diluted (1:10) by pipetting 100 μL into 900 μL of sterile broth and mixing it well. 100 μL of each of the two dilutions are plated onto two different antibacterial-free agar plates. A sterile cell spreader is used to spread the liquid. Then the plate is sealed with a transparent adhesive film. The microtiter plate and agar plates are incubated at 37° C. for 16-20 hours or until satisfactory growth is obtained. The colonies on the agar plate are counted the next day to verify that the right number of cfu was inoculated. The plate is agitated in the SpectraMax spectrophotometer for 90 s and the OD600 for all the wells in the plate is recorded.

- MIC (MRSA ATCC-700699): 3.12 µM (≈ 2.29 µg/mL)
- MIC (MRSA ATCC-1720): 3.12 µM (≈ 2.29 µg/mL)
- MIC (MRSA ATCC-BAA-44): 3.12 µM (≈ 2.29 µg/mL)
- MIC (MRSA ATCC-2094): 3.12 µM (≈ 2.29 µg/mL)
- MIC (MRSA ATCC-BAA-1680): 1.56 µM (≈ 1.15 µg/mL)
- MIC (MRSA ATCC-BAA-1681): 3.12 µM (≈ 2.29 µg/mL)
- MIC (MRSA (ATCC 33591); MRSA (ATCC 33591), read-out: MIC): 1.56 µM (≈ 1.14 µg/mL)
- MIC (MRSA (ATCC 33591); MRSA strain ATCC-33591, read-out: MIC values): 1.56 µM (≈ 1.15 µg/mL)
SMILES: N=C(N)NCCCCNC(=O)[C@@H](Cc1ccc(-c2ccccc2)cc1)NC(=O)[C@@H](CCCNC(=N)N)NC(=O)[C@H](N)Cc1ccc(-c2ccccc2)cc1 [Compound (A)]
